Measured values as given in patent US9139615B2, “High-affinity, dimeric inhibitors of PSD-95 as efficient neuroprotectants against ischemic brain damage and for treatment of pain” (University of Copenhagen, priority 2011, dated 2015).
Entries after “also recorded” stand apart in the source; their conditions may differ. Read-outs that look alike come from different tables or passages of the source. One block for each compound: values may come before it.

Key:
[1] = Spinal cord detection of fluorescent PSD-95 inhibitors; format: in vivo, mice; details: mouse, in vivo
Protocol: To investigate if AB143 and AB145 are able to enter spinal cord tissue, they were administered to the mice by intraperitoneal injection (30 mg/kg). The drug-treated mice were decapitated 30 min after injection, and the spinal cord was carefully dissected out, to which 5% trichloroacetic acid (TCA) (300 μL per 0.1 g tissue) was added and the tissue homogenized with an ultrasonic homogenizer (on ice). The homogenated tissue was vortexed and centrifuged for 10 min (20000 g at 4° C.). The supernatant was transferred to a test tube and evaporated, and the residue was reconstituted in water and its fluoresence intensity was determined by using a fluorescence plate reader (excitation/emission:470/525 nm). For quantification of the compounds, a standard curve was prepared by spiking a known amount of AB143 and AB145 into spinal cord tissue from control mice prior to homogenization, followed by work-up and analysis similar to the drug-treated mice.

PDZ1-2 of PSD-95 = biological target: T1, PDZ1-2 of PSD-95 (Homo sapiens, UniProt P78352); assay: Fluorescence polarization (FP) assay, affinity for PDZ1-2 of PSD-95; format: binding; details: for Ki: probe AB143 0.5 nM, PDZ1-2 […], IC50 converted to Ki
T1 construct: made in house; host or cells: E. coli BL21-DE3 pLysS
T1 sequence (P78352 with tags, fused parts or gaps): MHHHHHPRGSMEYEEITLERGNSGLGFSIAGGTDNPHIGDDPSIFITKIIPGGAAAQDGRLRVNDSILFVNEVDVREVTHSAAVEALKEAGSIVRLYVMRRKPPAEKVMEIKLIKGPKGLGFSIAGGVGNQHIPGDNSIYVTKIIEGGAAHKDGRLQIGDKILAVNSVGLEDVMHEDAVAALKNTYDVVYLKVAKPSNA
Description: VI.i. Fluorescence Polarization (FP) Assay: as described below, Example 1 provides a convenient and reliable way to monitor and evaluate the inhibitor properties of a PSD-95 inhibitor of the invention. The FP assay allows a wide range of peptide analogues to be tested and compared with respect to their interaction with PDZ domains, and their specificity with respect to the tandem PDZ1-2 of PSD-95. PDZ1-2 is expressed using standard recombinant DNA technology known to those skilled in the art.
More specifically, the assay is based on a heterologous competition binding assay, where the affinity measured as IC50 of a given (non-fluorescent) peptide analogue for a PDZ domain is measured in the presence of a fixed concentration of a fluorescent labeled dimeric ligand (AB143; FIG. 4). Determined IC50 values are converted to Ki values (Nikolovska-Coleska et al, Anal. Biochem. 2004, 332, p. 261-273). The 5-FAM fluorophore may be attached to the dimeric ligand by coupling with HATU or HBTU.
The cDNA coding for PSD-95 PDZ1-2 tandem (corresponding to residues 61-249 in the human full-length PSD95α without exon 4b) were amplified by inverted PCR and cloned in a modified His-tagged pRSET vector (Invitrogen, Carlsbad, Calif., USA). The encoded PDZ1-2 peptide further comprised the sequence, […] (SEQ ID NO: 14), which was used as a tag for purification (His-tag), and the DNA coding sequences and encoded proteins are designated as follows: HIS-PDZ1-2 DNA [SEQ ID NO: 1] encoding HIS-PDZ1-2 protein [SEQ ID NO: 2]. Competent E. coli bacteria (BL21-DE3, pLysS) were transformed with PDZ1-2 expressing construct and grown overnight on agar plates containing ampicillin (100 μg/mL) and chloramphenicol (35 μg/mL) at 37° C. Colonies were picked and used to inoculate bacterial cultures (LB medium with 50 μg/mL ampicillin). These were shaken while being incubated at 37° C. until A600 of the culture reached 0.45, at which point 1 mM isopropyl β-D-1-thiogalactopyranoside was added. Induced cultures were incubated over night at 30° C. (PDZ1-2). Cells were harvested by spinning at 10,000 g for 10 min at 4° C. and re-suspended in lysis buffer (50 mM Tris/HCL pH 7.5, 1 mM PMSF, 25 μg/ml DNAse, 40 mM Mg2SO4). The cells were destroyed using a cell disruptor apparatus at 26 KPsi. The cell lysate was spun down at 35,000 g for 1 hour and the supernatant filtered with a 0.45 μm and a 0.22 μm filter. Purification of expressed PDZ1-2 peptide was performed with first a nickel (II)-charged column (HisTrap™ HP, GE Healthcare, UK) equilibrated with Tris-buffer (Tris/HCl buffer 50 mM, pH 7.5) followed by gel-filtration. For gel-filtration the PDZ1-2 sample was loaded on a Superdex™ 75 HR 10/30 column (GE Healthcare, UK) equilibrated with Tris buffer (20 mM Tris/HCL, pH 7.5) with a constant flow rate at 0.5 mL/min. The relevant fractions were analyzed on a SDS-PAGE gel stained by a standard silver staining protocol. The final purification was analyzed by electrospray ionization liquid chromatography-mass spectrometry (ESI-LC/MS) to get the exact molecular weight and thereby verify the identity of the PDZ1-2 domain. Molar extinction coefficients were found by amino acids analysis (Alphalyse, Odense, Denmark) and thereafter used for measuring protein concentrations. […]
An in vitro affinity measurement assay was developed based on the fluorescence polarization principle in order to provide affinity constants (Ki values) between synthesized ligands (e.g. dimeric inhibitors) and PDZ1-2 of PSD-95. […]

[2] = system: CFA-induced mechanical allodynia/hyperalgesia; assay: Complete Freund's adjuvant (CFA) inflammatory pain, von Frey test; format: in vivo, mice

Structure (SMILES): CC[C@H](C)[C@H](NC(=O)CCOCCOCCOCCOCCOCCOCCOCCC(=O)N[C@H](C(=O)N[C@@H](CCC(=O)O)C(=O)N[C@@H](CO)C(=O)N[C@@H](CC(=O)O)C(=O)N[C@H](C(=O)O)C(C)C)[C@@H](C)CC)C(=O)N[C@@H](CCC(=O)O)C(=O)N[C@@H](CO)C(=O)N[C@@H](CC(=O)O)C(=O)N[C@H](C(=O)O)C(C)C [AB122, PEG6(IESDV)2]
ability to enter spinal cord tissue (concluded from fluorescent surrogates) [1]: able to reach their target, PSD-95, in the spinal cord

Structure (SMILES): CC[C@H](C)[C@H](NC(=O)CCOCCOCCOCCOCCOCCC(=O)N[C@H](C(=O)N[C@@H](CCC(=O)O)C(=O)N[C@@H](CO)C(=O)N[C@@H](CC(=O)O)C(=O)N[C@H](C(=O)O)C(C)C)[C@@H](C)CC)C(=O)N[C@@H](CCC(=O)O)C(=O)N[C@@H](CO)C(=O)N[C@@H](CC(=O)O)C(=O)N[C@H](C(=O)O)C(C)C [AB123, PEG4(IESDV)2]
ability to enter spinal cord tissue (concluded from fluorescent surrogates) [1]: able to reach their target, PSD-95, in the spinal cord

Ki (PDZ1-2 of PSD-95; heterologous competition, TBS pH 7.4, read-out: Ki ± SEM, affinity towards PDZ1-2 of PSD-95): ~9.5 nM
Structure (SMILES): CC[C@H](C)[C@H](NC(=O)CCOCCOCCOCCOCCOCCC(=O)N[C@H](C(=O)N[C@@H](CCC(=O)O)C(=O)N[C@H](C(=O)N[C@@H](C)C(=O)N[C@H](C(=O)O)C(C)C)[C@@H](C)O)[C@@H](C)CC)C(=O)N[C@@H](CCC(=O)O)C(=O)N[C@H](C(=O)N[C@@H](C)C(=O)N[C@H](C(=O)O)C(C)C)[C@@H](C)O [AB125, PEG4(IETAV)2]
CFA-induced hyperalgesia ([2]; 1, 3 and 10 mg/kg given 24 hours after CFA-injection, at 72 hours): significantly reversed | CFA-induced pain response (paw withdrawal threshold) ([2]; 3, 10 and 30 mg/kg i.p. simultaneously with CFA, 24 hours afterwards): reduces CFA-induced pain response; also recorded: differed significantly from saline-treated mice | CFA-induced hyperalgesia ([2]; 3 and 10 mg/kg given 24 hours after CFA-injection, after 1 hour): significant reversal of the CFA-induced hyperalgesia | CFA-induced hyperalgesia ([2]; 3 and 10 mg/kg given 24 hours after CFA-injection, after 24 hours): significant reversal was still observed | CFA-induced hyperalgesia ([2]; 3 and 10 mg/kg, given simultaneously with CFA, after 1 hour): significantly reversed the CFA-induced hyperalgesia | CFA-induced hyperalgesia ([2]; 3 and 10 mg/kg, given simultaneously with CFA, after 24 hours): significant reversal was still observed | duration of reversal of CFA-induced hyperalgesia ([2]; administered 24 hours after CFA treatment): at least 3 days | CFA-induced mechanical hyperalgesia ([2]; administered concurrently with CFA, 1 hour and 24 hours after treatment): prevented the development of CFA-induced mechanical hyperalgesia

Structure (SMILES): CC[C@H](C)[C@H](NC(=O)CCOCCOCCNCCOCCOCCC(=O)N[C@H](C(=O)N[C@@H](CCC(=O)O)C(=O)N[C@H](C(=O)N[C@@H](C)C(=O)N[C@H](C(=O)O)C(C)C)[C@@H](C)O)[C@@H](C)CC)C(=O)N[C@@H](CCC(=O)O)C(=O)N[C@H](C(=O)N[C@@H](C)C(=O)N[C@H](C(=O)O)C(C)C)[C@@H](C)O [AB141, NPEG4(IETAV)2]
ability to enter spinal cord tissue (concluded from fluorescent surrogates) [1]: able to reach their target, PSD-95, in the spinal cord

fluorescence in spinal cord tissue compared to saline-treated mice [1]: clear and distinct fluorescence increase | Kd (PDZ1-2 of PSD-95; saturation binding, probe 0.5 nM, TBS pH 7.4, read-out: Kd towards PDZ1-2 of PSD-95): 7.8 ± 0.11 nM
Structure (SMILES): CC[C@H](C)[C@H](NC(=O)CCOCCOCCN(CCOCCOCCC(=O)N[C@H](C(=O)N[C@@H](CCC(=O)O)C(=O)N[C@H](C(=O)N[C@@H](C)C(=O)N[C@H](C(=O)O)C(C)C)[C@@H](C)O)[C@@H](C)CC)C(=O)c1ccc2c(c1)C(=O)OC21c2ccc(O)cc2Oc2cc(O)ccc21)C(=O)N[C@@H](CCC(=O)O)C(=O)N[C@H](C(=O)N[C@@H](C)C(=O)N[C@H](C(=O)O)C(C)C)[C@@H](C)O [AB143, F-NPEG4(IETAV)2]

Structure (SMILES): CC(C)[C@H](NC(=O)[C@H](CC(=O)O)NC(=O)[C@@H](NC(=O)[C@H](CCC(=O)O)NC(=O)[C@H](CCCCNC(=O)[C@H](CCCNC(=N)N)NC(=O)[C@H](CCCNC(=N)N)NC(=O)[C@H](CCCNC(=N)N)NC(=O)[C@H](CCC(N)=O)NC(=O)[C@H](CCCNC(=N)N)NC(=O)[C@H](CCCNC(=N)N)NC(=O)[C@H](CCCCN)NC(=O)[C@H](CCCCN)NC(=O)[C@H](CCCNC(=N)N)NC(=O)CNC(=O)[C@@H](N)Cc1ccc(O)cc1)NC(=O)CCOCCOCCOCCOCCOCCC(=O)N[C@@H](CCCCNC(=O)[C@H](CCCNC(=N)N)NC(=O)[C@H](CCCNC(=N)N)NC(=O)[C@H](CCCNC(=N)N)NC(=O)[C@H](CCC(N)=O)NC(=O)[C@H](CCCNC(=N)N)NC(=O)[C@H](CCCNC(=N)N)NC(=O)[C@H](CCCCN)NC(=O)[C@H](CCCCN)NC(=O)[C@H](CCCNC(=N)N)NC(=O)CNC(=O)[C@@H](N)Cc1ccc(O)cc1)C(=O)N[C@@H](CCC(=O)O)C(=O)N[C@H](C(=O)N[C@@H](CC(=O)O)C(=O)N[C@H](C(=O)O)C(C)C)[C@@H](C)O)[C@@H](C)O)C(=O)O [AB144_H]
Ki (PDZ1-2 of PSD-95; Ki ± SEM, affinity towards PDZ1-2 of PSD-95, heterologous competition, TBS pH 7.4): 24 ± 2 nM | fold lower affinity than AB144 (PDZ1-2 of PSD-95; PDZ1-2 of PSD-95, from Ki): ~5 fold
